In PubChem BioAssay (NCI):
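All cell lines were grown in 96-well plates and treated with compound for 48 hours. GI50: concentration for 50% inhibition of growth. TGI marks complete inhibition of growth.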

Legend:
Assay in all cases: NCI tumour cell line growth inhibition, 48 h
T-47D breast = tested on: T-47D breast
HCT-15 colon = tested on: HCT-15 colon
OVCAR-8 ovarian = tested on: OVCAR-8 ovarian
SN12C renal = tested on: SN12C renal
LOX IMVI melanoma = tested on: LOX IMVI melanoma
SF-295 CNS = tested on: SF-295 CNS
786-0 renal = tested on: 786-0 renal
TK-10 renal = tested on: TK-10 renal
HCC-2998 colon = tested on: HCC-2998 colon
HOP-92 NSCLC = tested on: HOP-92 NSCLC
HCT-116 colon = tested on: HCT-116 colon
SK-OV-3 ovarian = tested on: SK-OV-3 ovarian
NCI/ADR-RES ovarian = tested on: NCI/ADR-RES ovarian
A498 renal = tested on: A498 renal
MOLT-4 leukemia = tested on: MOLT-4 leukemia
OVCAR-5 ovarian = tested on: OVCAR-5 ovarian
MALME-3M melanoma = tested on: MALME-3M melanoma
HT29 colon = tested on: HT29 colon
CAKI-1 renal = tested on: CAKI-1 renal
DU-145 prostate = tested on: DU-145 prostate
OVCAR-4 ovarian = tested on: OVCAR-4 ovarian
SF-539 CNS = tested on: SF-539 CNS
UO-31 renal = tested on: UO-31 renal
OVCAR-3 ovarian = tested on: OVCAR-3 ovarian
SW-620 colon = tested on: SW-620 colon
NCI-H226 lung = tested on: NCI-H226 lung
SK-MEL-5 melanoma = tested on: SK-MEL-5 melanoma
HS 578T breast = tested on: HS 578T breast
BT-549 breast = tested on: BT-549 breast
PC-3 prostate = tested on: PC-3 prostate
CCRF-CEM leukemia = tested on: CCRF-CEM leukemia
COLO 205 colon = tested on: COLO 205 colon
KM12 colon = tested on: KM12 colon
SR leukemia = tested on: SR leukemia
RXF 393 renal = tested on: RXF 393 renal
NCI-H460 lung = tested on: NCI-H460 lung
UACC-257 melanoma = tested on: UACC-257 melanoma
HOP-62 NSCLC = tested on: HOP-62 NSCLC
SK-MEL-2 melanoma = tested on: SK-MEL-2 melanoma
ACHN renal = tested on: ACHN renal
MDA-MB-231 breast = tested on: MDA-MB-231 breast
MDA-MB-435 = tested on: MDA-MB-435
SF-268 CNS = tested on: SF-268 CNS
UACC-62 melanoma = tested on: UACC-62 melanoma
MCF7 breast = tested on: MCF7 breast
A549 NSCLC = tested on: A549 NSCLC
SNB-75 CNS = tested on: SNB-75 CNS
HL-60(TB) leukemia = tested on: HL-60(TB) leukemia
IGROV1 ovarian = tested on: IGROV1 ovarian
NCI-H522 lung = tested on: NCI-H522 lung
M14 melanoma = tested on: M14 melanoma
SK-MEL-28 melanoma = tested on: SK-MEL-28 melanoma
SNB-19 CNS = tested on: SNB-19 CNS
K-562 leukemia = tested on: K-562 leukemia
NCI-H23 lung = tested on: NCI-H23 lung
RPMI-8226 leukemia = tested on: RPMI-8226 leukemia
U251 CNS = tested on: U251 CNS

O=CN/N=C/c1ccc(Cl)c([N+](=O)[O-])c1 showed a GI50 (T-47D breast) of 2.92 µM, a TGI (T-47D breast) of 51.7 µM and a GI50 (HCT-15 colon) of 4.14 µM. It also gave a TGI (HCT-15 colon) of over 100 µM, a GI50 (OVCAR-8 ovarian) of 0.567 µM and a TGI (OVCAR-8 ovarian) of over 100 µM. It also gave a GI50 (SN12C renal) of 0.503 µM, a TGI (SN12C renal) of 21.9 µM and a GI50 (LOX IMVI melanoma) of 0.111 µM. The TGI (LOX IMVI melanoma) was 13.7 µM, the GI50 (SF-295 CNS) was 0.623 µM and the TGI (SF-295 CNS) was over 79.9 µM. The GI50 (786-0 renal) was 0.544 µM, the TGI (786-0 renal) was over 100 µM and the GI50 (TK-10 renal) was 2.4 µM. For the same molecule, the TGI (TK-10 renal) was 71.3 µM, the GI50 (HCC-2998 colon) was 0.37 µM and the TGI (HCC-2998 colon) was 19.6 µM. For the same molecule, the GI50 (HOP-92 NSCLC) was 1.24 µM, the TGI (HOP-92 NSCLC) was 21.1 µM and the GI50 (HCT-116 colon) was 0.0536 µM. It also gave a TGI (HCT-116 colon) of over 100 µM, a GI50 (SK-OV-3 ovarian) of 7.33 µM and a TGI (SK-OV-3 ovarian) of over 100 µM. It also gave a GI50 (NCI/ADR-RES ovarian) of over 100 µM, a TGI (NCI/ADR-RES ovarian) of over 100 µM and a GI50 (A498 renal) of 2.14 µM. The TGI (A498 renal) was 90.5 µM, the GI50 (MOLT-4 leukemia) was 0.577 µM and the TGI (MOLT-4 leukemia) was 46.8 µM. The GI50 (OVCAR-5 ovarian) was 0.189 µM, the TGI (OVCAR-5 ovarian) was over 100 µM and the GI50 (MALME-3M melanoma) was 3.19 µM. The TGI (MALME-3M melanoma) was 33 µM, the GI50 (HT29 colon) was 0.0457 µM and the TGI (HT29 colon) was 14.4 µM. It also gave a GI50 (CAKI-1 renal) of 4.04 µM, a TGI (CAKI-1 renal) of over 100 µM and a GI50 (DU-145 prostate) of 0.401 µM. The TGI (DU-145 prostate) was over 100 µM, the GI50 (OVCAR-4 ovarian) was 0.684 µM and the TGI (OVCAR-4 ovarian) was 60.6 µM. For the same molecule, the GI50 (SF-539 CNS) was 0.309 µM, the TGI (SF-539 CNS) was 13.7 µM and the GI50 (UO-31 renal) was 54.1 µM. The TGI (UO-31 renal) was over 100 µM, the GI50 (OVCAR-3 ovarian) was 0.555 µM and the TGI (OVCAR-3 ovarian) was 20.7 µM. For the same molecule, the GI50 (SW-620 colon) was 0.0596 µM, the TGI (SW-620 colon) was over 100 µM and the GI50 (NCI-H226 lung) was 0.725 µM. The TGI (NCI-H226 lung) was over 100 µM, the GI50 (SK-MEL-5 melanoma) was 0.402 µM and the TGI (SK-MEL-5 melanoma) was 3.7 µM. It also gave a GI50 (HS 578T breast) of 9.41 µM, a TGI (HS 578T breast) of 40.7 µM and a GI50 (BT-549 breast) of 3.31 µM. For the same molecule, the TGI (BT-549 breast) was 20 µM, the GI50 (PC-3 prostate) was 0.0249 µM and the TGI (PC-3 prostate) was 13.2 µM. It also gave a GI50 (CCRF-CEM leukemia) of 0.243 µM, a TGI (CCRF-CEM leukemia) of 72.6 µM and a GI50 (COLO 205 colon) of 0.11 µM. The TGI (COLO 205 colon) was 15.4 µM, the GI50 (KM12 colon) was 0.228 µM and the TGI (KM12 colon) was 15.1 µM. For the same molecule, the GI50 (SR leukemia) was 0.126 µM, the TGI (SR leukemia) was 22.6 µM and the GI50 (RXF 393 renal) was 0.399 µM. It also gave a TGI (RXF 393 renal) of over 100 µM, a GI50 (NCI-H460 lung) of 0.0427 µM and a TGI (NCI-H460 lung) of 14.8 µM. For the same molecule, the GI50 (UACC-257 melanoma) was 0.618 µM, the TGI (UACC-257 melanoma) was 27.4 µM and the GI50 (HOP-62 NSCLC) was 1.47 µM. The TGI (HOP-62 NSCLC) was 49.7 µM, the GI50 (SK-MEL-2 melanoma) was 5.43 µM and the TGI (SK-MEL-2 melanoma) was 22.6 µM. For the same molecule, the GI50 (ACHN renal) was 5.17 µM, the TGI (ACHN renal) was over 100 µM and the GI50 (MDA-MB-231 breast) was 1.54 µM. The TGI (MDA-MB-231 breast) was 27.3 µM, the GI50 (MDA-MB-435) was 0.0611 µM and the TGI (MDA-MB-435) was 18.6 µM. It also gave a GI50 (SF-268 CNS) of 0.172 µM, a TGI (SF-268 CNS) of 18.4 µM and a GI50 (UACC-62 melanoma) of 0.327 µM. For the same molecule, the TGI (UACC-62 melanoma) was 14.6 µM, the GI50 (MCF7 breast) was 0.351 µM and the TGI (MCF7 breast) was 58.6 µM. It also gave a GI50 (A549 NSCLC) of 0.337 µM, a TGI (A549 NSCLC) of over 100 µM and a GI50 (SNB-75 CNS) of 0.787 µM. For the same molecule, the TGI (SNB-75 CNS) was 31.5 µM, the GI50 (HL-60(TB) leukemia) was 0.125 µM and the TGI (HL-60(TB) leukemia) was 18.4 µM. It also gave a GI50 (IGROV1 ovarian) of 0.0728 µM, a TGI (IGROV1 ovarian) of 21.9 µM and a GI50 (NCI-H522 lung) of 0.451 µM. The TGI (NCI-H522 lung) was 19.9 µM, the GI50 (M14 melanoma) was 0.513 µM and the TGI (M14 melanoma) was over 46.5 µM. For the same molecule, the GI50 (SK-MEL-28 melanoma) was 0.899 µM, the TGI (SK-MEL-28 melanoma) was 24 µM and the GI50 (SNB-19 CNS) was 0.518 µM. For the same molecule, the TGI (SNB-19 CNS) was 46.6 µM, the GI50 (K-562 leukemia) was 0.197 µM and the TGI (K-562 leukemia) was over 100 µM. For the same molecule, the GI50 (NCI-H23 lung) was 0.396 µM, the TGI (NCI-H23 lung) was 48.1 µM and the GI50 (RPMI-8226 leukemia) was 0.439 µM. For the same molecule, the TGI (RPMI-8226 leukemia) was 17.4 µM, the GI50 (U251 CNS) was 0.0617 µM and the TGI (U251 CNS) was 25.8 µM.
